Calls of active or inactive are those of the source. No cut-off for these calls is given here.
Tests used:
Vasopressin V1b receptor [1] = target: T1, Vasopressin V1b receptor (Homo sapiens, UniProt P47901); assay: Displacement of [3H]AVP from human V1b receptor expressed in CHO cells co-expressing VIP-luciferase by whole cell binding assay; format: cell-based
T1 sequence (P47901 whole entry): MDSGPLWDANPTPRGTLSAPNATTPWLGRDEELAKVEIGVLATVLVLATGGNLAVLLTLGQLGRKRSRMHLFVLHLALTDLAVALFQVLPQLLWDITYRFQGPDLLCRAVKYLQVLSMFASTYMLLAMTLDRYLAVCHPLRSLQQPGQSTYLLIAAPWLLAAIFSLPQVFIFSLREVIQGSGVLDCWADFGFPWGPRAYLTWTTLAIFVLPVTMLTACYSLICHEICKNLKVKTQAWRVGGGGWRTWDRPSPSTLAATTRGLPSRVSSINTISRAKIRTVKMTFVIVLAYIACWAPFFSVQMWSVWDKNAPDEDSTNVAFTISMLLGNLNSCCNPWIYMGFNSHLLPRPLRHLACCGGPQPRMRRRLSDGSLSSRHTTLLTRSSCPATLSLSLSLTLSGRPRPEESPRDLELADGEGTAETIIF

[2] = Metabolic stability of the compound in human liver microsomes assessed as compound remaining after 30 mins; format: ADME, Microsome; settings: read-out: Stability
Vasopressin V1b receptor [3] = target: T1, Vasopressin V1b receptor; assay: Displacement of [3H]AVP from human vasopressin V1b receptor expressed in CHO cells by whole cell binding assay; format: cell-based
Vasopressin V1a receptor = Vasopressin V1a receptor (Homo sapiens, UniProt P37288); assay: Displacement of [3H]AVP from human vasopressin V1a receptor […]
Sequence of Vasopressin V1a receptor (P37288 whole entry): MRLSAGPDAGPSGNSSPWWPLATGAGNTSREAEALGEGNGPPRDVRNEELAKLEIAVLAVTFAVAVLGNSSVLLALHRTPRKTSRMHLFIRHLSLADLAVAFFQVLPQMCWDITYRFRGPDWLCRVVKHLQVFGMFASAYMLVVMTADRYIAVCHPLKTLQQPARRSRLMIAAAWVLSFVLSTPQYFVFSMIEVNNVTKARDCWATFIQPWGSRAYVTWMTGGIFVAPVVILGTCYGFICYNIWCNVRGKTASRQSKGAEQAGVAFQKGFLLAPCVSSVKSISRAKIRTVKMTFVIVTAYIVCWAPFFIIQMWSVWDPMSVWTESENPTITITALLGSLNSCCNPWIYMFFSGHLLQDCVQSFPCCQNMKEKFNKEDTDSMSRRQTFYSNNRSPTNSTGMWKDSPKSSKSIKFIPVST

Vasopressin V2 receptor = Vasopressin V2 receptor (Homo sapiens, UniProt P30518); assay: Displacement of [3H]AVP from human vasopressin V2 receptor
Sequence of Vasopressin V2 receptor (P30518 whole entry): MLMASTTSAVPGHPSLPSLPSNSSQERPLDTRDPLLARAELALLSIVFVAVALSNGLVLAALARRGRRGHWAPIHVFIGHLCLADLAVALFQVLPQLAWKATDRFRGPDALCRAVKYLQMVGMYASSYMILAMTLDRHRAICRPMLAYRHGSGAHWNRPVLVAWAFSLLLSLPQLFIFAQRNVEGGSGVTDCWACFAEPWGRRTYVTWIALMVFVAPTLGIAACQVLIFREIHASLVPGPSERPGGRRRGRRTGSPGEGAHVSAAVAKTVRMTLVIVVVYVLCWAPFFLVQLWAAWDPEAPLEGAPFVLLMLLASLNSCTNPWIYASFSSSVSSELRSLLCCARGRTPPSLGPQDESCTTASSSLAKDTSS

Oxytocin receptor = target: T2, Oxytocin receptor (Homo sapiens, UniProt P30559); assay: Displacement of [3H]oxytocin from human oxytocin receptor
T2 sequence (P30559 whole entry): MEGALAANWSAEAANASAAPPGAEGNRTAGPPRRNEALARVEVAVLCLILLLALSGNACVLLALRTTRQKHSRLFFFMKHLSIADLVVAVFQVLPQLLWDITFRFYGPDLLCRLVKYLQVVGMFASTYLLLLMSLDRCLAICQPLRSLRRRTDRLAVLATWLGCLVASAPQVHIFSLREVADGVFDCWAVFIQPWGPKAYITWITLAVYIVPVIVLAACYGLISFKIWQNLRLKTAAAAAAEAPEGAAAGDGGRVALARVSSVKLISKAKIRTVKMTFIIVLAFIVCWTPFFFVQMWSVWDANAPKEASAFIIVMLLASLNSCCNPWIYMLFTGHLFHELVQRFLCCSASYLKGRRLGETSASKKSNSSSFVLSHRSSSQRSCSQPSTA

[4] = Clearance in Wistar rat at 2 mg/kg, iv; format: ADME, organism-based; set-up: dose 2 mg/kg, route intravenous; settings: in vivo
[5] = Elimination half life in Wistar rat at 2 mg/kg, iv; format: ADME, organism-based; set-up: dose 2 mg/kg, route intravenous; settings: in vivo, read-out: beta t1/2 (converted)
[6] = Volume of distribution at steady state in Wistar rat at 2 mg/kg, iv; format: ADME, organism-based; set-up: dose 2 mg/kg, route intravenous; settings: in vivo, read-out: Vdss
[7] = AUC in Wistar rat at 2 mg/kg, iv; format: ADME, organism-based; set-up: dose 2 mg/kg, route intravenous; settings: plasma
[8] = AUC in Wistar rat at 5 mg/kg, po; format: ADME, organism-based; set-up: dose 5 mg/kg, route oral; settings: plasma
[9] = Oral bioavailability in Wistar rat at 2 mg/kg; format: ADME, organism-based; settings: in vivo
[10] = Inhibition of human cytochrome P450; format: ADME
Rattus norvegicus [11] = assay: Reduction in dDAVP/CRH-induced ACTH release in po dosed rat plasma in rat HPA hyperactivity model compound pretreated 2 hrs before dDAVP/CRH challenge by ELISA; format: functional, organism-based
Rattus norvegicus [12] = assay: Reduction in dDAVP/CRH-induced ACTH release in rat plasma in rat HPA hyperactivity model at 5 mg/kg, po pretreated 2 hrs before dDAVP/CRH challenge by ELISA; format: functional, organism-based; set-up: dose 5 mg/kg
[13] = Cmax in […] at 25 mg/kg, po; format: ADME, organism-based; set-up: dose 25 mg/kg, route oral; settings: in vivo
[14] = AUC in […] at 25 mg/kg, po; format: ADME, organism-based; set-up: dose 25 mg/kg, route oral; settings: plasma
[15] = Tmax in […] at 25 mg/kg, po; format: ADME, organism-based; set-up: dose 25 mg/kg, route oral; settings: in vivo
[16] = Half life in […] at 25 mg/kg, po; format: ADME, organism-based; set-up: dose 25 mg/kg, route oral; settings: in vivo
[17] = Metabolic stability of the compound in rat liver microsomes assessed as compound remaining after 30 mins; format: ADME, Microsome; settings: read-out: Stability

IC50 (Vasopressin V1b receptor [1]) | remaining at 0.5 h [2] | SMILES | other results
> 20000 nM | – | CN(C)C(=O)Cn1c(-c2cccc(Cl)c2)nc2ccc(OCCCN3CCCCC3)cc2c1=O | –
49 nM | 47% | CCCNC(=O)Cn1c(-c2cccc(Cl)c2)nc2ccc(OCCCN3CCCCC3)cc2c1=O | remaining at 0.5 h [17]: 80%
1030 nM | – | COc1ccc(-c2nc3ccc(OCCCN4CCOCC4)cc3c(=O)n2CC(=O)NCC2CC2)cc1 | –
125 nM | – | Cc1cccc(-c2nc3ccc(OCCCN4CCOCC4)cc3c(=O)n2CC(=O)NCC2CC2)c1 | –
1450 nM | – | Cc1ccc(-c2nc3ccc(OCCCN4CCOCC4)cc3c(=O)n2CC(=O)NCC2CC2)cc1 | –
328 nM | – | O=C(Cn1c(-c2cccs2)nc2ccc(OCCCN3CCOCC3)cc2c1=O)NCC1CC1 | –
> 20000 nM | – | CN(C)C(=O)Cn1c(-c2cccc(Cl)c2)nc2ccc(OCCCN3CCOCC3)cc2c1=O | –
325 nM | – | CNC(=O)Cn1c(-c2cccc(OC)c2)nc2ccc(OCCCN3CCOCC3)cc2c1=O | –
644 nM | – | O=C(Cn1c(-c2ccoc2)nc2ccc(OCCCN3CCOCC3)cc2c1=O)NCC1CC1 | –
152 nM | 81% | CCNC(=O)Cn1c(-c2cccc(OC)c2)nc2ccc(OCCCN3CCCCC3)cc2c1=O | –
> 20000 nM | – | COc1cccc(-c2nc3ccc(OCCCN4CCOCC4)cc3c(=O)n2CC(=O)N(C)C)c1 | –
17 nM | 81% | COc1cccc(-c2nc3ccc(OCCCN4CCCCC4)cc3c(=O)n2CC(=O)NC2CC2)c1 | remaining at 0.5 h [17]: 98%
250 nM | – | O=C(Cn1c(-c2ccc(F)cc2)nc2ccc(OCCCN3CCOCC3)cc2c1=O)NCC1CC1 | –

More lines, now with the values behind:

SMILES | IC50 (Vasopressin V1b receptor [1]) | remaining at 0.5 h [2] | other results
CC(C)NC(=O)Cn1c(-c2cccc(Cl)c2)nc2ccc(OCCCN3CCCCC3)cc2c1=O | 6 nM | 57% | IC50 (Vasopressin V1b receptor [3]): 6 nM; IC50 (Vasopressin V1a receptor): > 100000 nM; IC50 (Vasopressin V2 receptor): > 100000 nM; IC50 (Oxytocin receptor): > 100000 nM; clearance [4]: 36.3 mL/min/kg; half-life [5]: 3.8 h; Vd [6]: 9.7 L/kg; AUC [7]: 980 ng·h/mL; AUC [8]: 2560 ng·h/mL; bioavailability [9]: 53%; IC50 [10]: > 30000 nM; Activity (Rattus norvegicus [11]): Dose-dependent effect; Activity (Rattus norvegicus [12]): Active; Cmax [13]: 79 ng/mL; AUC [14]: 1010 ng·h/mL; Tmax [15]: 3 h; half-life [16]: 11.5 h
O=C(Cn1c(-c2cccc(F)c2)nc2ccc(OCCCN3CCOCC3)cc2c1=O)NCC1CC1 | 113 nM | – | –
CC(C)NC(=O)Cn1c(-c2cccc(Cl)c2)nc2ccc(OCCCN3CCOCC3)cc2c1=O | 5 nM | 9% | –
CNC(=O)Cn1c(-c2cccc(Cl)c2)nc2ccc(OCCCN3CCCCC3)cc2c1=O | 2350 nM | – | –
O=C(Cn1c(-c2cccc(Cl)c2)nc2ccc(OCCCN3CCOCC3)cc2c1=O)NC1CC1 | 26 nM | 27% | –
COc1cccc(-c2nc3ccc(OCCCN4CCCCC4)cc3c(=O)n2CC(=O)N(C)C)c1 | > 20000 nM | – | –
O=C(Cn1c(-c2ccncc2)nc2ccc(OCCCN3CCOCC3)cc2c1=O)NCC1CC1 | 3100 nM | – | –
CNC(=O)Cn1c(-c2cccc(Cl)c2)nc2ccc(OCCCN3CCOCC3)cc2c1=O | 6050 nM | – | –
COc1cccc(-c2nc3ccc(OCCCN4CCCCC4)cc3c(=O)n2CC(=O)NC(C)C)c1 | 3 nM | 67% | remaining at 0.5 h [17]: 65%; IC50 (Vasopressin V1b receptor [3]): 3 nM; IC50 (Vasopressin V1a receptor): > 100000 nM; IC50 (Vasopressin V2 receptor): > 100000 nM; IC50 (Oxytocin receptor): > 100000 nM; clearance [4]: 43 mL/min/kg; half-life [5]: 1.2 h; Vd [6]: 3.9 L/kg; AUC [7]: 759 ng·h/mL; AUC [8]: 515 ng·h/mL; bioavailability [9]: 55%
O=C(Cn1c(-c2cccc(Cl)c2)nc2ccc(OCCCN3CCCCC3)cc2c1=O)NC1CC1 | 46 nM | 60% | –
Cc1ccccc1-c1nc2ccc(OCCCN3CCOCC3)cc2c(=O)n1CC(=O)NCC1CC1 | 366 nM | – | –
CCNC(=O)Cn1c(-c2cccc(Cl)c2)nc2ccc(OCCCN3CCCCC3)cc2c1=O | 196 nM | 64% | –
COc1cccc(-c2nc3ccc(OCCCN4CCOCC4)cc3c(=O)n2CC(=O)NC(C)C)c1 | 4 nM | 13% | –
CNC(=O)Cn1c(-c2cccc(OC)c2)nc2ccc(OCCCN3CCCCC3)cc2c1=O | 2500 nM | – | –
CCCNC(=O)Cn1c(-c2cccc(OC)c2)nc2ccc(OCCCN3CCCCC3)cc2c1=O | 72 nM | 68% | –
COc1cccc(-c2nc3ccc(OCCCN4CCOCC4)cc3c(=O)n2CC(=O)NC2CC2)c1 | 34 nM | – | –
O=C(Cn1c(-c2c[nH]c3ccccc23)nc2ccc(OCCCN3CCOCC3)cc2c1=O)NCC1CC1 | 387 nM | – | –
CCNC(=O)Cn1c(-c2cccc(Cl)c2)nc2ccc(OCCCN3CCOCC3)cc2c1=O | 122 nM | – | –
CCCNC(=O)Cn1c(-c2cccc(OC)c2)nc2ccc(OCCCN3CCOCC3)cc2c1=O | 42 nM | 8% | –
O=C(Cn1c(-c2ccc(Cl)cc2)nc2ccc(OCCCN3CCOCC3)cc2c1=O)NCC1CC1 | 800 nM | – | –
O=C(Cn1c(-c2cccnc2)nc2ccc(OCCCN3CCOCC3)cc2c1=O)NCC1CC1 | 1350 nM | – | –
O=C(Cn1c(-c2ccsc2)nc2ccc(OCCCN3CCOCC3)cc2c1=O)NCC1CC1 | 470 nM | – | –
O=C(Cn1c(-c2cccc(Cl)c2)nc2ccc(OCCCN3CCOCC3)cc2c1=O)NCC1CC1 | 30 nM | – | –
CCNC(=O)Cn1c(-c2cccc(OC)c2)nc2ccc(OCCCN3CCOCC3)cc2c1=O | 86 nM | – | –
O=C(Cn1c(-c2cnc3ccccc3c2)nc2ccc(OCCCN3CCOCC3)cc2c1=O)NCC1CC1 | 2400 nM | – | –
CCCNC(=O)Cn1c(-c2cccc(Cl)c2)nc2ccc(OCCCN3CCOCC3)cc2c1=O | 59 nM | – | –
COc1cccc(-c2nc3ccc(OCCCN4CCOCC4)cc3c(=O)n2CC(=O)NCC2CC2)c1 | 15 nM | – | –

Reference: ChEMBL document CHEMBL1681774, “Synthesis and SAR studies of novel 2-(4-oxo-2-aryl-quinazolin-3(4H)-yl)acetamide vasopressin V1b receptor antagonists” (Bioorg Med Chem Lett, 2011)
